These results are taken from BindingDB's records for doi:10.1016/j.bmcl.2016.03.009 (Toray Industries, 2016).

This test is described as follows: Agonist activity at human IP receptor in platelet rich plasma assessed as inhibition of ADP-induced platelet aggregation preincubated for 1 min followed by addition of ADP by aggregometry.
`CCc1ccc(N(CCN2CCC(OCC(=O)O)CC2)C(=O)c2ccccc2)cc1`: the IC50 – broadly, the concentration that gives 50% inhibition – came out at 430 nM.

Regarding `O=C(O)COC1CCN(CCN(C(=O)c2ccccc2)c2ccc(Cl)cc2)C1` (stereo not given), the IC50 is 23000 nM.

As to `O=C(O)COC1CCN(CCN(C(=O)c2ccccc2)c2ccccc2)CC1`, the half-maximal inhibitory concentration (IC50) was 3200 nM.

On to `Cc1ccccc1N(CCN1CCC(OCC(=O)O)CC1)C(=O)c1ccccc1`, for which the IC50 is above 1000 nM.

Regarding `O=C(O)COc1ccc(CCN(C(=O)c2ccccc2)c2ccc(Cl)cc2)cc1`, the half-maximal inhibitory concentration (IC50) was determined as 740 nM.

In the case of `CCCCc1ccc(N(CCN2CCC(OCC(=O)O)CC2)C(=O)c2ccccc2)cc1`, the IC50 is above 1000 nM.

Consider `CC(C)c1ccc(N(CCN2CCC(OCC(=O)O)CC2)C(=O)c2ccccc2)cc1`, for which the IC50 is above 1000 nM.

Take `Cc1ccc(N(CCN2CCC(OCC(=O)O)CC2)C(=O)c2ccccc2)cc1`: the IC50 worked out at 130 nM.

Turning to `O=C(O)COc1ccc(CCCN(C(=O)c2ccccc2)c2ccc(Cl)cc2)cc1`, the IC50 came to 20000 nM.

Regarding `O=C(O)COc1cccc2c1OCCN2CCN(C(=O)c1ccccc1)c1ccc(Cl)cc1`, the IC50 was found to be 13 nM.

Turning to `Cc1ccc(N(CCN2CCC(OCC(=O)O)CC2)C(=O)c2ccccc2)c(C)c1`, the IC50 is above 1000 nM.

For the molecule `O=C(O)COc1ccc(CN(C(=O)c2ccccc2)c2ccc(Cl)cc2)cc1`, the IC50 is above 30000 nM.

For `COc1ccc(N(CCN2CCC(OCC(=O)O)CC2)C(=O)c2ccccc2)cc1`, the IC50 came out at 900 nM.

With `CCCc1ccc(N(CCN2CCC(OCC(=O)O)CC2)C(=O)c2ccccc2)cc1`, the IC50 is 1000 nM.

On to `O=C(O)COC1CCN(CCN(C(=O)c2ccccc2)c2ccc(N3CCCC3)cc2)CC1`, for which the IC50 is above 1000 nM.

Take `O=C(O)COc1cccc(CCN(C(=O)c2ccccc2)c2ccc(Cl)cc2)c1`: the IC50 was above 30000 nM.

On to `O=C(O)COC1CCN(CCN(C(=O)c2ccccc2)c2ccc(Cl)cc2)CC1`, for which the 50% inhibitory concentration (IC50) amounted to 440 nM.

For `Cc1cccc(N(CCN2CCC(OCC(=O)O)CC2)C(=O)c2ccccc2)c1`, the IC50 is above 1000 nM.

As to `Cc1cc(C)c(N(CCN2CCC(OCC(=O)O)CC2)C(=O)c2ccccc2)c(C)c1`, the IC50 is above 1000 nM.

For `O=C(O)COC1CCC(=CCN(C(=O)c2ccccc2)c2ccc(Cl)cc2)CC1` (stereo not given), the IC50 was found to be 320 nM.
